Results from PubChem BioAssay AID1963826 (Molecular Pharmacology Branch, DTP, NCI, 2024).

Tested on: 926638-142-R-J1-PDC complex spheroid viability
Experiment: Anticancer human tumor 926638-142-R-J1-PDC patient-derived endometrial carcinoma cell line growth inhibition [POLQ]
Conditions: for IC50: curve of first compound; for viability, T/C: stronger effect = lower value
Procedure: Multicellular complex tumor spheroid response to Polymerase (POL) inhibitors (novobiocin, ART-558, RP6685) in combination with a variety of drugs and investigational agents in selected tumor cell lines
The POL inhibitors (novobiocin, ART-558, and RP6685) were evaluated both individually and in combination with standard of care and investigational anticancer small molecules within a complex spheroid model of solid tumors. . Complex spheroids include a stromal component modeled by human endothelial cells (HUVEC) and fibroblasts modeled by human mesenchymal stem cells (MSCs). The concentration ranges selected for each drug and investigational agent were based upon clinically achievable concentrations if the clinical Cmax of the agent was known.
Compounds. The drugs and investigational agents: novobiocin (NSC847541), ART-558 (NSC835418), RP-6685 (NSC848927), peposertib (NSC802822), ceralasertib (NSC780249), elimusertib (NSC800525), camonsertib (NSC841442), AZD-1390 (NSC803789), olaparib (NSC753686), talazoparib (NSC767125), rucaparib (NSC756644), sotorasib (NSC818433), MRTX-1133 (NSC836407), SN-38 (NSC673596), topotecan (NSC609699), epotoside (NSC141540), doxorubicin (NSC123127), gemcitabine (NSC613327), 5-fluorouracil (NSC19893), paclitaxel (NSC125973), vemurafenib (NSC761431), MSA-2 (NSC828583), SN-011 (NSC837082), adavosertib (NSC754352), prexasertib (NSC758257), carboplatin (NSC241240) and oxaliplatin (NSC266046), were obtained from the National Cancer Institute (NCI) Developmental Therapeutics Program Chemical Repository (21). The FDA-approved anticancer drug set is available from the Developmental Therapeutics Program at https://dtp.cancer.gov/organization/dscb/obtaining/. […] The stock solutions were prepared in dimethyl sulfoxide (DMSO, Sigma-Aldrich, St. Louis, MO, cat. D2650), except for the platinum compounds which were prepared in saline (Quality Biological, Gaithersburg, MD, cat. 114-055-101), at 800-fold the tested concentration and stored at -70 degrees C prior to their use. All drugs and investigational agents were tested over a range starting from a high concentration at or near the clinical Cmax and decreasing in half-log increments. If the clinical Cmax for an agent had not been determined, the highest concentration tested was 10 microM, except for SN-38, which was tested at a high concentration of 1 microM.
Cell Culture. All cells were maintained in an incubator at 37 degrees C and 5% CO2 with 95% humidity. The PDC lines were cultured according to standard operating procedures established by the NCI PDMR (https://pdmr.cancer.gov). Table 3 of the manuscript, lists the cell lines along with the number of the three cell types plated to form the mct-spheroids and media for tumor cell growth. After thawing, all PDC lines, except 997537-175-T-J1-PDC and 415267-285-R-J2-PDC, were cultured in Matrigel-coated flasks prepared with a working solution of 1X Ham's F-12 nutrient mix, without supplementation (Thermo Fisher Scientific, cat. 11765054), 100 U/mL penicillin-streptomycin (Thermo Fisher Scientific, cat. 15140122), and 2.5% Matrigel (Corning Inc., Corning, NY, cat. 354248) for the first three passages. The two PDC lines 997537-175-T-J1-PDC and 415267-285-R-J2-PDC were cultured on uncoated flasks. The 857933-349-R-J2-PDC line was cultured in 6C/Colon 1B media containing advanced DMEM/F-12 (Thermo Fisher Scientific, cat. 12634028), 10 mM HEPES (Thermo Fisher Scientific, cat. 15630080), 1X GlutaMAX supplement (Thermo Fisher Scientific, cat. 35050061), 0.1 mg/mL primocin (InvivoGen, San Diego, CA, cat. ant-pm-2), 10% defined fetal bovine serum, heat inactivated (HyClone Laboratories Inc., Logan, UT, cat. SH30070.03HI), 50% L-WRN conditioned media (ATCC, cat. CRL-3276), 1.25 mM N-Acetyl-L-cysteine (Sigma-Aldrich, cat. A9165), 10 mM nicotinamide (Sigma-Aldrich, cat. N0636), 1X B-27 supplement (Thermo Fisher Scientific, cat. 17504044), 1X N-2 supplement (Thermo Fisher Scientific, cat. […]

[1] = second compound 0.0316 µM, first compound 0.0316 µM
[2] = second compound 0.0316 µM, first compound 0.1 µM
[3] = second compound 0.0316 µM, first compound 0.316 µM
[4] = second compound 0.0316 µM, first compound 1 µM
[5] = second compound 0.0316 µM, first compound 3.16 µM
[6] = second compound 0.0316 µM, first compound 10 µM
[7] = second compound 0.1 µM, first compound 0.0316 µM
[8] = second compound 0.1 µM, first compound 0.1 µM
[9] = second compound 0.1 µM, first compound 0.316 µM
[10] = second compound 0.1 µM, first compound 1 µM
[11] = second compound 0.1 µM, first compound 3.16 µM
[12] = second compound 0.1 µM, first compound 10 µM
[13] = second compound 0.316 µM, first compound 0.0316 µM
[14] = second compound 0.316 µM, first compound 0.1 µM
[15] = second compound 0.316 µM, first compound 0.316 µM
[16] = second compound 0.316 µM, first compound 1 µM
[17] = second compound 0.316 µM, first compound 3.16 µM
[18] = second compound 0.316 µM, first compound 10 µM
[19] = second compound 1 µM, first compound 0.0316 µM
[20] = second compound 1 µM, first compound 0.1 µM
[21] = second compound 1 µM, first compound 0.316 µM
[22] = second compound 1 µM, first compound 1 µM
[23] = second compound 1 µM, first compound 3.16 µM
[24] = second compound 1 µM, first compound 10 µM
[25] = second compound 3.16 µM, first compound 0.0316 µM
[26] = second compound 3.16 µM, first compound 0.1 µM
[27] = second compound 3.16 µM, first compound 0.316 µM
[28] = second compound 3.16 µM, first compound 1 µM
[29] = second compound 3.16 µM, first compound 3.16 µM
[30] = second compound 3.16 µM, first compound 10 µM
[31] = second compound 10 µM, first compound 0.0316 µM
[32] = second compound 10 µM, first compound 0.1 µM
[33] = second compound 10 µM, first compound 0.316 µM
[34] = second compound 10 µM, first compound 1 µM
[35] = second compound 10 µM, first compound 3.16 µM
[36] = second compound 10 µM, first compound 10 µM
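Also: spheroids exposed to drugs for one week before readout.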
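For viability, T/C in this document: percent viability relative to DMSO vehicle control wells set as 100%.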

Question: What does the source list for CC1COCCN1c1cc(C2(S(C)(=N)=O)CC2)nc(-c2ccnc3[nH]ccc23)n1 (centres undefined) + COC1C(OC(N)=O)C(O)C(Oc2ccc3c(O)c(NC(=O)c4ccc(O)c(CC=C(C)C)c4)c(=O)oc3c2C)OC1(C)C?
Answer: IC50 (second compound 0.0316 µM): 5.67 µM; IC50 (second compound 0.1 µM): 7.87 µM; IC50 (second compound 0.316 µM): 6.15 µM; IC50 (second compound 1 µM): 5.99 µM; IC50 (second compound 3.16 µM): 5.86 µM; IC50 (second compound 10 µM): 5.68 µM; viability, T/C [1]: 119%; viability, T/C [2]: 99.4%; viability, T/C [3]: 110%; viability, T/C [4]: 88.1%; viability, T/C [5]: 64.9%; viability, T/C [6]: 35.5%; viability, T/C [7]: 96%; viability, T/C [8]: 107%; viability, T/C [9]: 109%; viability, T/C [10]: 82.7%; viability, T/C [11]: 71%; viability, T/C [12]: 44.5%; viability, T/C [13]: 107%; viability, T/C [14]: 98%; viability, T/C [15]: 115%; viability, T/C [16]: 83.1%; viability, T/C [17]: 77.2%; viability, T/C [18]: 31.9%; viability, T/C [19]: 121%; viability, T/C [20]: 101%; viability, T/C [21]: 94%; viability, T/C [22]: 84.4%; viability, T/C [23]: 77.2%; viability, T/C [24]: 31.8%; viability, T/C [25]: 93.1%; viability, T/C [26]: 106%; viability, T/C [27]: 114%; viability, T/C [28]: 99.3%; viability, T/C [29]: 70.4%; viability, T/C [30]: 32.4%; viability, T/C [31]: 97.6%; viability, T/C [32]: 91.4%; viability, T/C [33]: 100%; viability, T/C [34]: 89.2%; viability, T/C [35]: 71.1%; viability, T/C [36]: 29.8%

Question: Which results are given for CCCS(=O)(=O)Nc1ccc(F)c(C(=O)c2c[nH]c3ncc(-c4ccc(Cl)cc4)cc23)c1F + COC1C(OC(N)=O)C(O)C(Oc2ccc3c(O)c(NC(=O)c4ccc(O)c(CC=C(C)C)c4)c(=O)oc3c2C)OC1(C)C?
Answer: IC50 (second compound 0.0316 µM): 8.72 µM; IC50 (second compound 0.1 µM): 9.76 µM; IC50 (second compound 0.316 µM): 9.97 µM; IC50 (second compound 1 µM): > 10 µM; IC50 (second compound 3.16 µM): 9.78 µM; IC50 (second compound 10 µM): 9.92 µM; viability, T/C [1]: 112%; viability, T/C [2]: 89.5%; viability, T/C [3]: 93.1%; viability, T/C [4]: 122%; viability, T/C [5]: 86.4%; viability, T/C [6]: 45%; viability, T/C [7]: 108%; viability, T/C [8]: 105%; viability, T/C [9]: 83.3%; viability, T/C [10]: 112%; viability, T/C [11]: 91.3%; viability, T/C [12]: 49.1%; viability, T/C [13]: 110%; viability, T/C [14]: 114%; viability, T/C [15]: 118%; viability, T/C [16]: 116%; viability, T/C [17]: 105%; viability, T/C [18]: 49.6%; viability, T/C [19]: 84%; viability, T/C [20]: 95.7%; viability, T/C [21]: 104%; viability, T/C [22]: 101%; viability, T/C [23]: 98.8%; viability, T/C [24]: 52.2%; viability, T/C [25]: 89.7%; viability, T/C [26]: 92.3%; viability, T/C [27]: 89.2%; viability, T/C [28]: 95.2%; viability, T/C [29]: 95.5%; viability, T/C [30]: 49.2%; viability, T/C [31]: 81.9%; viability, T/C [32]: 93.7%; viability, T/C [33]: 90%; viability, T/C [34]: 84%; viability, T/C [35]: 83.7%; viability, T/C [36]: 49.5%
